# Experimental data as given in the supplement of paper PMC10307832.
# Columns and labels:
# Experiment in all cases: relative viability (nuclei count vs DMSO), 5 days (fraction); higher = more cells survive
# HOP-62 = system: HOP-62
# Summary of the method: (§1)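 Relative viability was taken as the ratio of nuclei in treated wells to nuclei in vehicle wells. Lung cancer cell lines in 1536-well plates received compounds by pin tool one day after seeding, either one drug alone or a fixed anchor-drug dose plus five library-drug doses (not always all listed) in √10 steps. Nuclei were counted on 4× images after 5 days of treatment, and values are medians of duplicate plates.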
# EMC-BAC-2 = system: EMC-BAC-2
# Summary of the method: as §1
# NCI-H1915 = system: NCI-H1915
# Summary of the method: as §1
# EKVX = system: EKVX
# Summary of the method: as §1
# HCC-366 = system: HCC-366
# Summary of the method: as §1
# NCI-H1993 = system: NCI-H1993
# Summary of the method: as §1
# 201T = system: 201T
# Summary of the method: as §1
# LK-2 = system: LK-2
# Summary of the method: as §1
# BEN = system: BEN
# Summary of the method: as §1
# NCI-H1734 = system: NCI-H1734
# Summary of the method: as §1
# NCI-H2405 = system: NCI-H2405
# Summary of the method: as §1
# NCI-H460 = system: NCI-H460
# Summary of the method: as §1
# NCI-H522 = system: NCI-H522
# Summary of the method: as §1
# NCI-H647 = system: NCI-H647
# Summary of the method: as §1
# HCC-15 = system: HCC-15
# Summary of the method: as §1
# A-427 = system: A-427
# Summary of the method: as §1
# PC-14 = system: PC-14
# Summary of the method: as §1
# HCC-78 = system: HCC-78
# Summary of the method: as §1
smiles,measurement,setting,value
CCNC(=O)c1noc(-c2cc(C(C)C)c(O)cc2O)c1-c1ccc(CN2CCOCC2)cc1 [Luminespib] + NC(=O)Nc1cc(-c2cccc(F)c2)sc1C(=O)N[C@H]1CCCNC1 [AZD7762] (partner 0.2 µM),relative viability,HOP-62; first compound 0.002 µM,0.437
same,relative viability,HOP-62; first compound 0.006325 µM,0.463
same,relative viability,HOP-62; first compound 0.02 µM,0.306
same,relative viability,HOP-62; first compound 0.06325 µM,0.129
same,relative viability,HOP-62; first compound 0.2 µM,0.109
same,relative viability,EMC-BAC-2; first compound 0.002 µM,1.12
same,relative viability,EMC-BAC-2; first compound 0.006325 µM,0.655
same,relative viability,EMC-BAC-2; first compound 0.02 µM,0.689
same,relative viability,EMC-BAC-2; first compound 0.06325 µM,0.769
same,relative viability,EMC-BAC-2; first compound 0.2 µM,0.226
same,relative viability,NCI-H1915; first compound 0.002 µM,0.662
same,relative viability,NCI-H1915; first compound 0.006325 µM,0.674
same,relative viability,NCI-H1915; first compound 0.02 µM,0.627
same,relative viability,NCI-H1915; first compound 0.06325 µM,0.473
same,relative viability,NCI-H1915; first compound 0.2 µM,0.0604
same,relative viability,EKVX; first compound 0.002 µM,0.669
same,relative viability,EKVX; first compound 0.006325 µM,0.68
same,relative viability,EKVX; first compound 0.02 µM,0.475
same,relative viability,EKVX; first compound 0.06325 µM,0.239
same,relative viability,EKVX; first compound 0.2 µM,0.104
same,relative viability,HCC-366; first compound 0.002 µM,0.392
same,relative viability,HCC-366; first compound 0.006325 µM,0.302
same,relative viability,HCC-366; first compound 0.02 µM,0.331
same,relative viability,HCC-366; first compound 0.06325 µM,0.0393
same,relative viability,HCC-366; first compound 0.2 µM,0.0222
same,relative viability,NCI-H1993; first compound 0.002 µM,0.759
same,relative viability,NCI-H1993; first compound 0.006325 µM,0.772
same,relative viability,NCI-H1993; first compound 0.02 µM,0.513
same,relative viability,NCI-H1993; first compound 0.06325 µM,0.247
same,relative viability,NCI-H1993; first compound 0.2 µM,0.237
same,relative viability,201T; first compound 0.002 µM,0.621
same,relative viability,201T; first compound 0.006325 µM,0.555
same,relative viability,201T; first compound 0.02 µM,0.525
same,relative viability,201T; first compound 0.06325 µM,0.516
same,relative viability,201T; first compound 0.2 µM,0.318
same,relative viability,LK-2; first compound 0.002 µM,0.37
same,relative viability,LK-2; first compound 0.006325 µM,0.481
same,relative viability,LK-2; first compound 0.02 µM,0.278
same,relative viability,LK-2; first compound 0.06325 µM,0.0715
same,relative viability,LK-2; first compound 0.2 µM,0.0593
same,relative viability,BEN; first compound 0.002 µM,0.687
same,relative viability,BEN; first compound 0.006325 µM,0.669
same,relative viability,BEN; first compound 0.02 µM,0.405
same,relative viability,BEN; first compound 0.06325 µM,0.516
same,relative viability,BEN; first compound 0.2 µM,0.272
same,relative viability,NCI-H1734; first compound 0.002 µM,0.516
same,relative viability,NCI-H1734; first compound 0.006325 µM,0.497
same,relative viability,NCI-H1734; first compound 0.02 µM,0.28
same,relative viability,NCI-H1734; first compound 0.06325 µM,0.0991
same,relative viability,NCI-H1734; first compound 0.2 µM,0.124
same,relative viability,NCI-H2405; first compound 0.002 µM,0.865
same,relative viability,NCI-H2405; first compound 0.02 µM,0.711
same,relative viability,NCI-H2405; first compound 0.06325 µM,0.167
same,relative viability,NCI-H2405; first compound 0.2 µM,0.127
same,relative viability,NCI-H460; first compound 0.002 µM,0.679
same,relative viability,NCI-H460; first compound 0.006325 µM,0.628
same,relative viability,NCI-H460; first compound 0.02 µM,0.717
same,relative viability,NCI-H460; first compound 0.06325 µM,0.0326
same,relative viability,NCI-H460; first compound 0.2 µM,0.0406
same,relative viability,NCI-H522; first compound 0.002 µM,0.866
same,relative viability,NCI-H522; first compound 0.006325 µM,0.93
same,relative viability,NCI-H522; first compound 0.02 µM,0.694
same,relative viability,NCI-H522; first compound 0.06325 µM,0.713
same,relative viability,NCI-H522; first compound 0.2 µM,0.353
same,relative viability,NCI-H647; first compound 0.002 µM,0.506
same,relative viability,NCI-H647; first compound 0.006325 µM,0.538
same,relative viability,NCI-H647; first compound 0.02 µM,0.176
same,relative viability,NCI-H647; first compound 0.06325 µM,0.0596
same,relative viability,NCI-H647; first compound 0.2 µM,0.0506
same,relative viability,HCC-15; first compound 0.002 µM,1.11
same,relative viability,HCC-15; first compound 0.006325 µM,1.11
same,relative viability,HCC-15; first compound 0.02 µM,1.36
same,relative viability,HCC-15; first compound 0.06325 µM,1.14
same,relative viability,HCC-15; first compound 0.2 µM,0.247
same,relative viability,A-427; first compound 0.002 µM,0.865
same,relative viability,A-427; first compound 0.006325 µM,0.722
same,relative viability,A-427; first compound 0.02 µM,0.557
same,relative viability,A-427; first compound 0.06325 µM,0.258
same,relative viability,A-427; first compound 0.2 µM,0.205
same,relative viability,PC-14; first compound 0.002 µM,0.32
same,relative viability,PC-14; first compound 0.006325 µM,0.38
same,relative viability,PC-14; first compound 0.02 µM,0.179
same,relative viability,PC-14; first compound 0.06325 µM,0.102
same,relative viability,PC-14; first compound 0.2 µM,0.0933
same,relative viability,HCC-78; first compound 0.002 µM,0.562
same,relative viability,HCC-78; first compound 0.006325 µM,0.591
same,relative viability,HCC-78; first compound 0.02 µM,0.536
same,relative viability,HCC-78; first compound 0.06325 µM,0.497
same,relative viability,HCC-78; first compound 0.2 µM,0.333
